Patent publication US20220160703A1, “TUMOR-SELECTIVE COMBINATION THERAPY” (The Board of Regents of The University of Texas System, priority 2019, published 2022)

Tests used:
[1] = test system: NQO1 negative cell lines Panc02 and B16; assay: Cell viability/survival of NQO1 negative murine tumor lines (SRB); assay type: cell-based; conditions: β-lap 0-8 μM, SRB 4 days later
Procedure: (FIG. 1A) NQO1 positive tumor cell lines MC38, TC-1 and Ag104Ld and NQO1 negative cell lines Panc02 and B16 grown in 48-well plates were treated with β-lap (0-8 μM) for a 3 hr followed by washing and replacing medium. Cell viability was determined by Sulforhodamine B (SRB) Assay 4 days later. […] (FIG. 1C) MC38 cells with CRISPR-based NQO1 Knockout (MC38 NQO1KO #5) planted in 96-well plates were exposed to β-lap for 3 hr and cell survival was assessed 48 hr later. […] (FIG. 1E) MC38 cells were exposed to a lethal dose of β-lap (4 μM) for indicated times, then stained with 7-AAD and Annexin V followed by flow cytometry analysis. […] (FIG. 1H) MC38 and B16 NQO1 #1 cells were exposed to β-lap for a 3 hr. Catalase (1000 U/ml) was added and cell survival was assessed 48 hr later. […] Tumor growth was monitored twice a week.
(FIG. 8A) NQO1 expression in multiple murine tumor lines was immunoblotted as indicated. […] Drugs were removed and survival assessed 5 days later. (FIG. 8C) Relative H2O2 levels were assessed in various cells treated with β-lap for 3 h at the indicated doses using CellRox-Glo. […] (FIG. 8D) TC-1 cells exposure to β-lap for 12 h, later PARP-1 and Caspase-3 levels were analyzed by western blotting assay. […]
(FIGS. 14A-C) NQO1 cells MC38 (A) and TC-1 (B) and NQO1^− cells B16 (C) were treated for 2 h with various doses of IB-DNQ±DIC (50 μM). Drugs were removed and survival assessed 6 days later. […]

[2] = test system: MC38 cells; assay: 7-AAD and Annexin V cell death, flow cytometry; assay type: cell-based, murine; conditions: lethal dose of β-lap (4 μM)
Procedure: (FIG. 1A) NQO1 positive tumor cell lines MC38, TC-1 and Ag104Ld and NQO1 negative cell lines Panc02 and B16 grown in 48-well plates were treated with β-lap (0-8 μM) for a 3 hr followed by washing and replacing medium. Cell viability was determined by Sulforhodamine B (SRB) Assay 4 days later. […] (FIG. 1C) MC38 cells with CRISPR-based NQO1 Knockout (MC38 NQO1KO #5) planted in 96-well plates were exposed to β-lap for 3 hr and cell survival was assessed 48 hr later. […] (FIG. 1E) MC38 cells were exposed to a lethal dose of β-lap (4 μM) for indicated times, then stained with 7-AAD and Annexin V followed by flow cytometry analysis. […] (FIG. 1H) MC38 and B16 NQO1 #1 cells were exposed to β-lap for a 3 hr. Catalase (1000 U/ml) was added and cell survival was assessed 48 hr later. (FIG. 1I) C57BL/6 mice (n=5/group) were transplanted with MC38 cells and treated with β-lap (0.03 mg, 0.1 mg or 0.3 mg, intratumorally; or 25 mg/kg, i.v.) every other day for four times. […] Tumor growth was monitored twice a week.
(FIG. 21A) Viability of murine cell lines following IB-DNQ treatment for 4 h. […] (FIGS. 21D-E) DNA double strand break was assessed via comet assay (FIG. 21D) and γH2AX foci/nuclei immunofluorescence (FIG. 21E). (FIG. 21F) MC38 cell death after a 4 h exposure to IB-DNQ was determined by 7AAD and Annexin V staining using flow cytometry analysis.

[3] = test system: MC38 tumor; assay: MC38 subcutaneous syngeneic tumor model; assay type: in vivo, mice

CC1(C)CCC2=C(O1)c1ccccc1C(=O)C2=O [β-lap, β-lapachone]
response to 3 h β-lap exposure (cell viability) [1]: resistant | mode of cell death [2]: rapid cell swelling, membrane rupture and Annexin V+/7AAD+ cell death without caspase activation | tumor growth with irradiation ([3]; 10 Gy + 0.1 mg β-lap, 3 i.t. injections, tumors 100 mm^3): significant inhibition of tumor growth | response with irradiation ([3]; 10 Gy + β-lap 30 mg/kg i.p. every other day, 6 injections, tumors 50 mm3): significant synergistic responses | therapeutic effect in NQO1 knockout MC38 mouse models ([3]; NQO1 KO MC38, 0.3 mg i.t. four times): abolished | mice cured ([3]; WT C57BL/6, 4 doses of β-lap (0.3 mg, i.t.)): 50% | mice with complete tumor rejection ([3]; local β-lap 15 mg/kg, 7/15 mice): 46.7% | TGI ([3]; small tumors (about 50 mm^3), β-lap 0.3 mg i.t. four times): 93.0% | antitumor efficacy with anti-IFNAR blocking antibody ([3]; β-lap 0.1 mg i.t., anti-IFNAR Ab 150 μg): greatly impaired the antitumor efficacy | effect with HMGB1 blockade ([3]; β-lap 0.3 mg i.t. + anti-HMGB1 200 μg i.p.): diminished the effect | therapeutic effect with neutrophil depletion ([3]; β-lap 0.3 mg i.t. + anti-Ly-6G 200 μg): greatly impaired the therapeutic effect | tumor regression in IFNAR knockout mice ([3]; β-lap 0.3 mg i.t. day 9, 12, 15): totally abrogated | therapeutic effect in Ifnar−/− mice ([3]; β-lap 0.3 mg i.t. four times): abrogated | antitumor effect alone or with CD4+ T cell depletion ([3]; β-lap 0.3 mg i.t. ± anti-CD4 200 μg): controlled MC38 tumor growth | tumor growth, systemic treatment ([3]; β-lap 30 mg/kg i.p. six times, anti-PD-L1, tumors about 50-100 mm^3): moderate inhibition of tumor growth
